Data: article PMC4640066 (Nature Communications, 2015)

Columns and labels:
[1] = test system: DMSO-stimulated, γ-tubulin-independent aster formation; assay: DMSO-stimulated aster formation in M-phase Xenopus egg extracts; type: biochemical; details: M-phase-arrested Xenopus egg extracts, 5% DMSO, 20 min at 20 °C
Method: Cytostatic factor (CSF)-arrested M phase Xenopus egg extracts (CSF extracts) were prepared. Briefly, unfertilized eggs were crushed by 10,700g centrifugation for 20 min. M phase extracts were mixed with 0.5 μM Cy3-labelled α/β-tubulin and various concentrations of compounds. After incubation for 30 min on ice, 15 μM RanQ69L, 200 sperm nuclei per μl or 5% DMSO were added and incubated for 30 min on ice. After incubation for 20 min at 20 °C (for the samples with sperm nuclei, the incubation time was 30 min), 1.5 μl sample was fixed with 1.5 μl fix solution (0.3 volume of 37% formaldehyde, 0.6 volume of 80% glycerol and 0.1 vol of 10 × MMR solution (50 mM HEPES, pH 7.8, 1 M NaCl, 20 mM KCl, 10 mM MgCl2, 20 mM CaCl2 and 1 mM EDTA)), followed by the squash fix.
Images were acquired using a microscope (Axiovert 200 M; Carl Zeiss Inc.) equipped with a plan-Apochromat × 63 NA 1.3 oil objective lens (Carl Zeiss Inc.), a Cy3 emission filter and a Cascade:1 K (Photometrics Inc.) camera, and the AxioVision software (Carl Zeiss Inc.). The aster size and fluorescence intensity were quantified using a macro written in MATLAB[41].

[2] = test system: γ-tubulin-dependent, centrosome-induced aster formation; assay: Centrosome (sperm nuclei)-induced aster formation in Xenopus egg extracts; type: biochemical; details: Xenopus extracts with sperm nuclei, 30 min at 20 °C
Method: Cytostatic factor (CSF)-arrested M phase Xenopus egg extracts (CSF extracts) were prepared. Briefly, unfertilized eggs were crushed by 10,700g centrifugation for 20 min. M phase extracts were mixed with 0.5 μM Cy3-labelled α/β-tubulin and various concentrations of compounds. After incubation for 30 min on ice, 15 μM RanQ69L, 200 sperm nuclei per μl or 5% DMSO were added and incubated for 30 min on ice. […]
(a) The efficiency of γ-tubulin depletion in Xenopus extracts was confirmed by immunoblotting. […] The depletion efficiency was calculated with ImageJ and was approx. 80%. […]
Scale bars, 5 μm. […] Aster formation was analyzed by fluorescence microscopy. […] Asters (Fig. 1e and Supplementary Figure 4c) in 10 randomly selected fields were counted per slide with a 10× objective; each sample had four slides. […]
Error bars represent S.D. Two-tailed, paired Student’s t-test was used to obtain P values. […] (e) Quantification of the radius of RanQ69L-induced asters from Fig. 1e and Supplementary Figure 4c. To gauge the impact upon the radius of the asters, n = 20 asters were quantified per sample per experiment. […]

[3] = test system: HeLa cells; assay: Analysis of interphase MT network; type: cell-based, human; details: 100 μM, 2.5 h
Method: HeLa cells were cultured in DMEM containing 10% FBS in a humidified atmosphere containing 5% CO2. After treatment with each compound for 2.5 h (interphase MT network) or 5 h (mitotic spindle), the cells were immediately fixed with cold MeOH (−20 °C). After blocking with PBS containing 0.5% bovine serum albumin, cells were incubated with anti-α-tubulin antibodies (1:500 dilution, Santa Cruz, Cat# sc-32293) to observe interphase cells, or with anti-BubR1 (1:250 dilution, BD Bioscience, Cat# 612502) and anti-α-tubulin (1:250 dilution, MBL, Cat# PM054) antibodies to observe mitotic spindle. After staining with Alexa^488-conjugated anti-mouse IgG (1:2,000 dilution, Invitrogen, Cat#A11001) and Alexa568-conjugated anti-rabbit IgG (1:2000 dilution, Invitrogen, Cat#A11011), cells were washed four times with PBS and mounted with PBS containing 0.1 μg ml^−1 DAPI. MTs and BubR1 signals were observed under a Leica LAS AF 6000 fluorescence microscope (Leica Microsystems) or an LSM 700 laser-scanning confocal microscope (Zeiss).

[4] = test system: HeLa cells; assay: Bipolar spindle establishment after STLC washout; type: cell-based, human; details: 30 μM, 2 h after STLC washout
Method: To analyse bipolar spindle establishment from monopolar spindles, HeLa cells were arrested at prometaphase with 10 μM of STLC for 15 h. STLC was removed by washing cells with the medium three times. After treatment with 1% DMSO or 30 μM of gatastatin for 2 h, cells were immediately fixed with cold MeOH (−20 °C).
Immunostaining was performed as described above using anti-α-tubulin (1:250 dilution, Santa Cruz, Cat# sc-32293) and anti-pericentrin (1:250 dilution, Abcam, Cat# ab4448) antibodies. Spindle structure was observed under a Leica LAS AF 6000 fluorescence microscope (Leica Microsystems). The measurement of spindle length was performed as described above.

- IC50 [1]: > 100 µM
SMILES: COc1cc2c(=O)c(-c3cc(OC)c4c(c3OC)OCO4)coc2cc1OCc1ccccc1 [Gatastatin, O^7-demethylbenzyl AG1]
- Effect on centrosome-induced aster formation [2]: nearly completely inhibited
- Effect on interphase MT network [3]: did not obviously change the appearance of the interphase MT network
- Cells unable to assemble a metaphase-like spindle on STLC washout [4]: 87%
